Experimental data reported in US20240009223A1, “6-THIO-2'-DEOXYGUANOSINE (6-THIO-DG) RESULTS IN TELOMERASE DEPENDENT TELOMERE DYSFUNCTION AND CELL DEATH IN VARIOUS MODELS OF THERAPY-RESISTANT CANCER CELLS” (The Board of Regents of The University of Texas System, priority 2016, published 2024).

Tests used:
[1] = test system: 13-456-3-3 xenografts; test: 13-456-3-3 xenograft tumor volume; type: in vivo, human
Experimental: (§1) Melanoma Xenotransplantation and In vivo Studies. 100,000 melanoma cells were harvested from cell culture and re-suspended in culture medium and Matrigel at a 1:1 ratio. Cells were subcutaneously injected into mice, which were treated with indicated inhibitors when the tumor volume reached 100 mm^3. Mice were sacrificed at the end time point and solid tumors were collected. All animal experiments were performed in accordance with Wistar IACUC protocol 112330 in NOD.[…] 1 Wjl/SzJ mice.

[2] = test system: normal epidermal keratinocytes; test: FACS analysis of apoptosis and cell death, normal keratinocytes; type: cell-based; settings: 120 hours
Experimental: Cells were then harvested and co-stained with PSVue643 and Propidium iodide (PI). Representative samples of 2 independent experiments.
(§2) FACS Analysis of Apoptosis and Cell Death. Adherent cells were harvested with 0.05% Trypsin-EDTA, pooled with floating cells and then washed once with 1×DPBS. Cells were then pelleted and stained with PSVue® 643 at 0.5 μM and Propidium iodide at 50 ug/ml diluted in TES buffer for 5 min in the dark. Cells were then immediately subjected to FACS analysis using a BD LSR II flow cytometer and at least 5,000 cells per sample were acquired.

[3] = test system: AXL and PLK1 in LOX-IMVI BR cells; test: Western blotting of AXL and PLK1 in LOX-IMVI BR cells; type: cell-based, human; settings: 120 hours
Excerpt: (§3) Western Blotting and Antibodies.

[4] = test system: A375 cells; test: Western blotting of RPPA-identified proteins in A375 cells; type: cell-based, human; settings: 48 and 72 hours
Excerpt: as §3

[5] = test system: AXL, ARID1A and PDGFRβ in 1205Lu, LOX-IMVI BR and UACC-903 BR xenografts; test: RPPA of xenografts treated in vivo; set-up: species or system human; settings: LOX-IMVI BR and UACC-903 BR xenografts treated in vivo
[6] = test system: PEO4; test: Relative cell viability, PEO4; type: cell-based, human; settings: 5 days
Experimental: Additionally, the efficacy of 6-thio-dG was tested using two human ovarian cancer cell lines, PEO4 and PEO1-CR. PEO4 is a derivative line of BRCA1/2-mutant PEO1 that regains homologous recombination by BRCA reversion mutation. […] Importantly, all three cell lines were sensitive to 6-thio-dG after the 5-day treatment (FIGS. 14H-14J).

[7] = test system: 499 and JB2; test: Long-term cell growth assay, therapy-resistant B16 derivatives; type: cell-based, mouse; settings: 12 days
Excerpt: In addition to therapy-resistant human melanoma, there was access to two derivatives of the mouse melanoma cell line B16. The first was 499 cell line that was resistant to radiation therapy and anti-CTLA-4; and the second cell line was JB2 that differs from 499 in which PD-L1 was knocked out (Benci et al., 2016).

[8] = test system: 12 BRAF-mutant human metastatic melanoma cell lines; test: Long-term cell growth assay, 12 BRAF-mutant melanoma cell lines; type: cell-based; settings: 9-12 days
Experimental: (§4) FIGS. 1A-1B show long-term cell growth assay of 12 non-melanoma cancer cell lines (FIG. 1A) and 12 BRAF-mutant melanoma cell lines (FIG. 1B) that were treated with 6-thio-dG (6dG) or BIBR 1532 (BIBR) at indicated doses for 9 to 12 days.
Given the prevalence of TERT promoter mutations in melanoma and the potency of telomerase-directed 6-thio-dG therapy in inhibiting cell proliferation of telomerase activity-positive lung and colon cancer cells, the efficacy of 6-thio-dG in the BRAF-mutant melanoma subtype was tested. To that end, a panel of 12 BRAF-mutant human metastatic melanoma cell lines were treated with 6-thio-dG and BIBR 1532 for 9-12 days, respectively.

[9] = test system: AXL, IGF-IRβ and VEGFR in G43 tumors; test: RPPA of G43 tumors treated in vivo; set-up: species or system mouse
Excerpt: (§5) Analysis of Gene Expression Microarray Data and Reverse Phase Protein Array (RPPA) Data. The raw data of gene expression microarrays generated from Illumina Chips were normalized, background-corrected and summarized using the R package “lumi”. […] To reduce false positives, the unexpressed probes were removed. The R package “limma” was employed for gene differential expression analysis, followed by multiple test correction by the Benjamini and Hochberg procedure. […] The inventors also conducted GSEA as previously reported. For GSEA, they analyzed gene sets obtained from the Molecular Signatures Database (world-wide-web at broadinstitute.org/gsea/msigdb/). The same differential expression analysis method was applied to RPPA data.

[10] = test system: 13-456-5-3 xenografts; test: 13-456-5-3 xenograft tumor volume; type: in vivo, human
Experimental: as §1

[11] = test system: WO-24-2; test: Relative cell viability, patient-derived culture WO-24-2; type: cell-based, human; set-up: cell viability: dose or concentration left out as unconfirmed; settings: 5 days
Excerpt: A short-term primary culture, WO-24-2 from a therapy-resistant human ovarian cancer, was also established. The WO-24-2 tumor was resected from a patient with high grade serous ovarian cancer who underwent an interval debulking surgery after receiving neoadjuvant chemotherapy with platinum/taxane and subsequently progressed on platinum chemotherapy. Immunofluorescence staining of PAX8 and cytokeratin 7 confirmed that these were indeed human ovarian cancer cells (FIG. 14K) (George et al., 2017).

[12] = test system: 12 BRAF-mutant melanoma cell lines; test: FACS analysis of apoptosis and cell death (PSVue 643/PI), 12 BRAF-mutant melanoma cell lines; type: cell-based, human
Experimental: FIGS. 3A-3E show long-term cell growth assay of 16 BRAF-mutant melanoma cell lines that were treated with 6-thio-dG or PLX4720 at indicated doses for 12 days (FIG. 3A). […] Cells were then harvested and co-stained with PSVue643 and Propidium iodide (PI). The average of 2 biological replicates are representative of 2 independent experiments; SA-β-gal staining of 4 BRAF-mutant melanoma cell lines treated with 6-thio-dG at 5 μM for 9 days (FIG. 3D).
as §2
In a time-course experiment, it was shown that the induction of apoptosis started to occur as early as 48 hour post-treatment (FIG. 3C).

[13] = test system: LOX-IMVI BR cells; test: RPPA of LOX-IMVI BR cells; type: cell-based, human; settings: 72 hours
Excerpt: as §5

[14] = test system: WM9 BR xenografts; test: WM9 BR xenograft tumor volume; type: in vivo, human; settings: WM9 BR xenografts in mice
Experimental: as §1

[15] = test system: panel of 12 cancer cell lines of 9 different histological origins; test: Long-term cell growth assay (crystal violet), 12 non-melanoma cancer cell lines; type: cell-based; settings: 9-12 days; in most cases
Experimental: as §4
Treatment of a Variety of Cancer Cell Lines with Telomerase-directed 6-thio-dG Impairs Cell Viability. […] To further confirm the inhibitory effect of 6-thio-dG, a panel of 12 cancer cell lines of 9 different histological origins was treated with 6-thio-dG for 9-12 days. As the control for 6-thio-dG, a known telomerase inhibitor, BIBR 1532, was also included. In most cases, these cancer cell lines were sensitive to 6-thio-dG administered at a dose of 2.5 μM and higher (FIG. 1A).

[16] = test system: UACC-903 BR xenografts; test: UACC-903 BR xenograft tumor volume; type: in vivo, human; settings: UACC-903 BR xenografts in mice
Experimental: as §1

In the case of `Nc1nc2c(ncn2[C@H]2C[C@H](O)[C@@H](CO)O2)c(=S)[nH]1` [6-thio-dG, 6-thio-2′-deoxyguanosine], the “anti-tumor activity in xenografts” value [1] is reported as “anti-tumor activity”, the “cell viability of normal cells” value [2] is reported as “did not impair the cell viability” and the “expression levels of AXL and PLK1 (western blotting)” value [3] is reported as “decreased”. For the same molecule, the “RPPA-identified down-regulated proteins, validated by western blotting” value [4] was “inhibited”, the “AXL, ARID1A and PDGFRβ (RPPA) in xenografts” value [5] was “inhibition” and the “sensitivity (relative cell viability)” value [6] was “sensitive”. The “in vitro cell proliferation” value [7] was “markedly inhibited in vitro cell proliferation”, the anti-proliferative effect [8] was “anti-proliferative effect” and the “AXL, IGF-IRβ and VEGFR (RPPA)” value [9] was “down-regulated”. For the same molecule, the “anti-tumor activity in xenografts” value [10] was “anti-tumor activity”, the cell viability [11] was “substantially inhibited” and the “apoptosis and cell death (PSVue 643+ cells)” value ([12]; 5 days (120 hours)) was “significantly induced apoptosis and cell death in 9 of 12”. The “sensitivity among all 12 BRAF-mutant melanoma cell lines” value ([12]; A375 melanoma cells, 5 days) was “most sensitive”, the “three major signaling pathways (cell cycle, DNA damage response, receptor tyrosine kinase signaling) by RPPA” value [13] was “altered” and the “in vivo growth of xenografts” value [14] was “significantly impaired the in vivo growth”. For the same molecule, the “dose at which the cell lines were sensitive (long-term cell growth)” value [15] was at least 2.5 µM and the “in vivo growth of xenografts” value [16] was “significantly impaired the in vivo growth”.
